From patent US20170298438A1, “DETECTION AND TREATMENT OF BREAST CANCER” (The European Molecular Biology Laboratory, priority 2011, published 2017)

Columns and labels:
Format in all cases: cell-based, human
[1] = tested on: BT549 cells; assay: H3S10ph immuno-labelling, mitotic phase distribution in BT549 cells; details: BT549 cytospin preparations
Protocol: (§1) To prepare cell monolayers, 0.5×10^6 cells were cytospun onto glass slides at 800×g for 5 min using a Cytospin 4 cytocentrifuge (Thermo Scientific), air dried and fixed in 4% neutral buffered formalin overnight.
Section deparaffinisation, antigen retrieval and immuno-staining were performed using the Bond III Autostainer and Bond Polymer Refine Detection kit (Leica) according to the manufacturer's instructions. Heat-mediated antigen retrieval and proteolytic digestion were used for H3S10ph and PAPPA antigens, respectively. Primary antibodies were applied for 40 min at the following dilutions: PAPP-A at 1/200; H3S10ph at 1/4000. Cytospin preparations were immuno-stained using the same protocol without the deparaffinisation step. […]
PAPPA was silenced by RNAi with a specific RNA duplex targeting PAPPA mRNA (Ambion s10042; sense 5′-GAGCCUACUUGGAUGUUAAtt-3′ (SEQ ID NO. 37) and antisense 5′-UUAACAUCCAAGUAGGCUCtg-3′ (SEQ ID NO. 38) or, alternatively, a pool of duplexes (ON-TARGETpIus SMARTpooI, Dharmacon). Non-targeting siRNA (Stealth RNAi Negative Control Med GC, Invitrogen) was used as negative control. All transfections were performed with Lipofectamine 2000 (Invitrogen). PAPPA siRNA at 100 nM final concentration was used to achieve efficient knock-down. Cells were harvested at the indicated time points post-transfection. Knock-down efficiency was assessed by qRT-PCR and/or Western blot. […]

[2] = tested on: HeLa Kyoto cells; assay: H3S10ph immuno-labelling of synchronised HeLa Kyoto cells; details: thymidine double block, BI2536 at 5 μM
Protocol: HeLa Kyoto cells were synchronised in S phase by a double thymidine block (Sigma). Briefly, a final concentration of 3 mM thymidine was added to the culture medium for 18 h, followed by release into fresh culture medium for 9 h and a second block with 3 mM thymidine for 17 h. […] Cell synchronisation was confirmed by flow cytometry. For immunofluorescence, HeLa Kyoto cells were grown on coverslips (12 mm #1 VWR International) and synchronised as described above. The synchronised cells were rinsed in PBS, fixed in 1% PFA, permeabilised with 0.1% Triton X-100/0.02% SDS, and blocked in 2% BSA. After the blocking step, phosphohistone H3 (H3S10ph) antibody was applied for 1 h at a dilution of 1/500 and after three washes with PBS, Alexa Fluor 594 antibody was added at a dilution of 1/300 for 1 h. Coverslips were washed three times in PBS and mounted with Vectashield non-fade DAPI (Vector Laboratories).

[3] = tested on: T47D cells; assay: H3S10ph immuno-staining, mitotic phase distribution in T47D cells; parameters: reduction of the proportion of mitotic T47D cells in prophase/prometaphase: dose or concentration left out as unconfirmed
Protocol: as §1
Section deparaffinisation, antigen retrieval and immuno-staining were performed using the Bond III Autostainer and Bond Polymer Refine Detection kit (Leica) according to the manufacturer's instructions. Heat-mediated antigen retrieval and proteolytic digestion were used for H3S10ph and PAPPA antigens, respectively. Primary antibodies were applied for 40 min at the following dilutions: PAPP-A at 1/200; H3S10ph at 1/4000. Cytospin preparations were immuno-stained using the same protocol without the deparaffinisation step. Incubation without primary antibody was used as a negative control and sections of tonsil and placenta were used as positive controls for H3S10ph and PAPPA antibodies, respectively.
Two consecutive serial sections from each tissue sample and two cytospin preparations for each cell line were immuno-stained for H3S10ph for analysis of mitotic phase distribution. […]
PAPPA and ZMPSTE24 (control) are zinc-dependent metalloproteinases of the metzincin superfamily. […] PAPPA and ZMPSTE24 expression levels were determined by qRT-PCR and western blot. […]

Molecule: siRNA-42: single RNA duplex targeting PAPPA mRNA, Ambion s10042 (SEQ ID NO. 37 and 38) (chain 1 GAGCCUACUUGGAUGUUAA; chain 2 UUAACAUCCAAGUAGGCUC; listed as RNA, chemistry not given here)
- mitotic phase phenotype in BT549 cells [1]: prophase/prometaphase delay phenotype

Molecule: CC[C@@H]1C(=O)N(C)c2cnc(Nc3ccc(C(=O)NC4CCN(C)CC4)cc3OC)nc2N1C1CCCC1 [BI2536]
- phosphohistone H3 (H3S10ph) detection in synchronised cells [2]: enrichment of prometaphase cells

Molecule: IGF-1: recombinant Human IGF-1 (IMR-233, Imgenex); IGF receptor agonist
- effect on mitotic delay phenotype in T47D cells ([3]; T47D cells (PAPPA promoter methylated)): reverses the mitotic delay phenotype
- reduction of the proportion of mitotic T47D cells in prophase/prometaphase ([3]; recombinant human IGF-1, harvested 24 h later, cells serum starved 48 h, versus control): approximately one half

Molecule: Cc1cn([C@H]2C[C@H](O)[C@@H](CO)O2)c(=O)[nH]c1=O [thymidine]
- phosphohistone H3 (H3S10ph) detection in synchronised cells [2]: not detected
